Assay results reported in patent publication US20250228848A1, “PROCESS FOR MAKING A KRAS G12C INHIBITOR” (ELI LILLY AND COMPANY, priority 2022, published 2025).
Like-named read-outs stand apart in the source and are kept apart here.

Experiments:
[1] = system: phosphorylation of p-ERK1/2 in human lung cancer cells H358; assay: H358 Cellular Phospho-ERK AlphaLISA; type: cell-based; settings: incubated for 2 hours with compound, p-ERK 1/2 (Thr202/Tyr204)
Procedure: Briefly, the AlphaLISA® SureFire® Ultra™ p-ERK 1/2 (Thr202/Tyr204) assay is a sandwich immunoassay for quantitative detection of phospho-ERK 1/2 (phosphorylated on Thr202/Tyr204 in ERK1, or Thr185/Tyr187 in ERK2) in cellular lysates using Alpha Technology (Perkin Elmer Cat #ALSU-PERK-A50K).
The next morning, 10 μL of serially-diluted (3-fold) test compounds (50 μM top concentration) and 10 μL of controls (Maximum signal wells: 5% DMSO and Minimum signal wells: 2 μM of N-(3-{3-cyclopropyl-5-[(2-fluoro-4-iodophenyl)amino]-6,8-dimethyl-2,4,7-trioxo-3,4,6,7-tetrahydropyrido[4,3-D]pyrimidin-1(2H)-yl}phenyl)acetamide (trametinib, as a positive control) are added to the cell plate and incubated for 2 hours in humid trays at 37° C./5% CO2. Lysis Buffer is prepared at ambient temperature containing a protease and phosphatase inhibitor cocktail. Culture medium is removed by inverting and shaking the cell plate in the sink and then blotting onto a paper towel. Lysis buffer is added to the cell plate (50 μL per well) and the plate is incubated at ambient temperature for 10 minutes on a shaker. For p-ERK detection, acceptor beads are diluted into a suspension mixture with buffer. Using a STARlet liquid handler, 5 μL of acceptor beads and 2 μL of cell lysate are transferred as a single-step in-tip dilution to a 384 well assay plate. The assay plate is sealed with foil and is incubated at ambient temperature for 2 hours. Donor beads are diluted into a suspension mixture with buffer. Using the STARlet, 5 μL of donor beads are added to the assay plate that is then sealed, wrapped with foil. The plate is incubated at ambient temperature for 2 hours in the dark. The assay plate is then read on an EnVision™ Plate Reader (Perkin Elmer) using a luminescence program.
The signal is converted to percent inhibition using the following equation: % Inhibition=100−[(Test Compound Signal−Median Minimum Signal)/(Median Maximum Signal−Median Min Signal)×100]. The Maximum signal is a control well without inhibitor.
(§1) Compounds within the scope of this disclosure are evaluated in this assay substantially as described above.

[2] = system: constitutive RAS GTPase activity in human lung cancer cells H358; assay: H358 Cellular Active RAS GTPase ELISA; type: cell-based; settings: serum free media, incubated for 2 hours with compound
Procedure: Activated RAS (GTP-bound) in cell extracts specifically bind to the Raf-RBD. Bound RAS is detected with a primary antibody that recognizes human KRas. A secondary antibody conjugated with HRP recognizes the primary antibody and a development solution provides a chemiluminescent readout.
The next morning, 10 μL of serially-diluted (3-fold) test compounds (500 μM top concentration) and 10 μL of controls (Maximum signal wells: 5% DMSO and Minimum signal wells: 500 μM 1-[4-[6-chloro-8-fluoro-7-(3-hydroxy-1-naphthyl)quinazolin-4-yl]piperazin-1-yl]prop-2-en-1-one, WO2015054572 as an inhibitor) are added to the cell plate and incubated for 2 hours at 37° C./5% CO2. Complete Lysis/Binding Buffer is prepared containing Protease Inhibitor cocktail and GST-Raf-RBD and stored on ice. One hour before cell plate incubation is completed, 50 μL of GST-Raf-RBD is diluted in lysis/binding buffer, and buffer is added to the ELISA assay plate and which is incubated for 1 hour at 4° C. with gently rocking. After 2 hours, the cells are washed with 100 μL ice-cold PBS and lysed with 100 μL lysis/binding buffer. The cell plate is shaken for 10 minutes at ambient temperature. The cell plate is then centrifuged at 1500 rpm for 10 minutes at ambient temperature. During this time, 1×Wash Buffer is prepared at ambient temperature and then is used to wash (3×100 μL) the GST-Raf-RBD coated assay plate. After washing, 50 μL of cell lysate is added to the GST-Raf-RBD coated assay plate and incubated for 1 hour at ambient temperature with gentle shaking. During this incubation period, 1×Antibody Binding Buffer is prepared and brought to ambient temperature. The assay plate is washed 3×100 μL with 1×Wash Buffer and then 50 μL of Primary Antibody (diluted 1:500 in 1×Antibody Binding buffer) is added. The plate is incubated for 1 hour at ambient temperature. The assay plate is washed 3×100 μL with 1×Wash Buffer and then 50 μL of Secondary Antibody (diluted 1:5000 in 1×Antibody Binding buffer) is added and incubated for 1 hour at ambient temperature. The assay plate is washed 4×100 μL with 1×Wash buffer and then 50 μL of chemiluminescent working solution is added at ambient temperature. The assay plate is then read on an EnVision™ Plate Reader (Perkin Elmer) using a luminescence program.
The signal is converted to percent inhibition using the following equation: % Inhibition=100−[(Test Compound Signal−Median Minimum Signal)/(Median Maximum Signal−Median Minimum Signal)×100]. The Maximum signal is a control well without inhibitor.
as §1

[3] = target: KRas G12C (Homo sapiens, UniProt P01116, G12C); assay: KRas G12C Probe Occupancy TR-FRET Assay; type: binding; settings: for IC50 concentrations relative to Examples 1, 3, 5, and 7 (the P atropisomer designations): comparison of M with P atropisomers, Table 3
Description: The purpose of this assay is to measure the ability of an inhibitor to compete with a probe for binding to and covalently modifying KRas G12C at codon 12. The signal is generated by the time-resolved transfer of fluorescence between europium on an antibody bound to KRas G12C Europium-labeled Anti-Histidine Tag Antibody LanthaScreen (the Eu Anti-His antibody) and fluorescent Tracer 647 (Alexa Fluor™) bound to KRas G12C through streptavidin and a biotinylated inhibitor (the “KRas Probe”, see Preparation 223).
Inhibitors are tested in dose response format from 10 mM stocks in 100% DMSO. The Labycyte Echo® 555 is used to dilute and transfer 100 nL per well containing a 10 point, 2.8-fold serial dilution to an assay plate. Two copies of the assay plate are prepared to measure the potency after 5 and 60 minutes incubation of the inhibitor with KRas G12C. His-tagged KRas G12C (20 nM) is added to the plates in assay buffer (20 mM Tris-HCl, pH 7.5, 0.01% TX-100, and 1 mM DTT). After 5 or 60 minutes incubation, 1 μM KRas Probe is added and allowed to covalently modify free KRas G12C for 1 hour. This is diluted 4-fold in buffer containing Eu Anti-His antibody and Streptavidin-Coated Tracer 647 (both from Life Technologies) to achieve KRas G12C (5 nM), Anti-His Antibody (2 nM), KRas Probe ([…]), and Streptavidin Coated Tracer 647 (500 nM). After 30 minutes, the fluorescent signal is read on an Envision™ Plate Reader (excitation at 340 nm, tracer emission (em) at […], and antibody emission at 615 nm). Maximum control wells lack inhibitor and minimum control wells lack both inhibitor and KRas G12C. The signal ratio (em at 665/em at 615) is converted to percent inhibition using the following equation: % Inhibition=100−[(Test Compound Signal−Median Minimum Signal)/(Median Maximum Signal−Median Minimum Signal)×100]. The IC50 is determined by fitting the percent inhibition at each inhibitor concentration to the four parameter nonlinear logistic equation using Genedata Screener®: y=(A+((B−A)/(1+((C/x)∧D)))) where, y=% inhibition, A=minimum asymptote, B=maximum asymptote, C=relative IC50 or the inhibitor concentration producing 50% inhibition within the fitted range of both asymptotes, and D=Hill Slope. Compounds within the scope of this disclosure are evaluated in this assay substantially as described above.

[4] = 5 minutes incubation of the inhibitor with His-tagged KRas G12C before KRas Probe, read-out: IC50 (nM) @ 5 min
[5] = 60 minutes incubation of the inhibitor with His-tagged KRas G12C before KRas Probe, read-out: IC50 (nM) @ 60 min

Chain of KRas G12C (P01116 1-188 isoform P01116-2 G12C): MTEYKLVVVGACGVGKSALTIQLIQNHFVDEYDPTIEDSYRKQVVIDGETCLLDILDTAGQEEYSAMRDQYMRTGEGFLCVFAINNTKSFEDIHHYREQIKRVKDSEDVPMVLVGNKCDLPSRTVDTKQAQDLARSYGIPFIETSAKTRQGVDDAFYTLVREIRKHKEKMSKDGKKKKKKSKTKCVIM

SMILES | IC50 [1] [µM] | IC50 [3, 4] [nM] | IC50 [3, 5] [nM] | IC50 ([2]; read-out: IC50) [µM] | IC50 concentrations relative to Examples 1, 3, 5, and 7 (the P atropisomer designations) [3] | IC50 [2] [µM]
C=CC(=O)N1CCN2C(=O)c3cc(F)c(-c4ccc(F)c5sc(N)c(C#N)c45)c(Cl)c3OCC[C@H]2C1 (single isomer, unassigned) [Example 5] | 0.33 | 3270 | 3250 |  |  | 1.77
C=CC(=O)N1CCN2C(=O)c3cc(F)c(-c4ccc(F)c5sc(N)c(C#N)c45)c(Cl)c3OCC[C@H]2C1 (single isomer, unassigned) [Example 6] | 0.000649 | < 15 | < 15 |  | superior IC50 concentrations | 0.00331
C=CC(=O)N1CCN2C(=O)c3cc(F)c(-c4ccc(F)c5sc(N)c(C#N)c45)c(Cl)c3OC[C@H]2C1 (single isomer, unassigned) [Example 7] | 2.98 | 26900 | 17900 | 23.8 |  | 

Continued, in another order:

IC50 [1] [µM] | IC50 [3, 4] [nM] | IC50 [3, 5] [nM] | IC50 ([2]; read-out: IC50) [µM] | IC50 concentrations relative to Examples 1, 3, 5, and 7 (the P atropisomer designations) [3] | SMILES | IC50 [2] [µM]
0.206 | 451 | 843 | 0.902 |  | C=CC(=O)N1CCN2C(=O)c3cc(F)c(-c4cccc5sc(N)c(C#N)c45)c(Cl)c3OCC[C@H]2C1 (single isomer, unassigned) [Example 3] | 
0.000902 | < 15 | < 15 | 0.00462 | superior IC50 concentrations | C=CC(=O)N1CCN2C(=O)c3cc(F)c(-c4ccc(F)c5sc(N)c(C#N)c45)c(Cl)c3OC[C@H]2C1 (single isomer, unassigned) [Example 8] | 
2.46 | 18600 | 16000 | 14.4 |  | C=CC(=O)N1CCN2C(=O)c3cc(Cl)c(-c4ccc(F)c5sc(N)nc45)c(Cl)c3OCC[C@H]2C1 (single isomer, unassigned) [Example 1] | 
 | < 15 | < 15 | 0.00671 | superior IC50 concentrations | C=CC(=O)N1CCN2C(=O)c3cc(Cl)c(-c4ccc(F)c5sc(N)nc45)c(Cl)c3OCC[C@H]2C1 (single isomer, unassigned) [Example 2] | 
0.00131 | < 15 | < 15 | 0.00566 | superior IC50 concentrations | C=CC(=O)N1CCN2C(=O)c3cc(F)c(-c4cccc5sc(N)c(C#N)c45)c(Cl)c3OCC[C@H]2C1 (single isomer, unassigned) [Example 4] | 
